The series concerns rodent carcinogenicity bioassays, tumor incidence. As to the kind of experiment: CCRIS carcinogenicity studies. An outline of the steps: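 NCI-built, expert-reviewed records of carcinogenicity and related test outcomes (mutagenicity, tumor promotion/inhibition) compiled from published and report sources, historical span 1985-2011, not updated.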

Drawing on PubChem BioAssay AID1259411 (Chemical Carcinogenesis Research Information System (CCRIS), 2018), this text covers carcinogen call for seven molecules.

The structures appear in SMILES notation. Active and inactive are the calls of the source. How the calls were made is not given here.

Turning to `CCOC(=O)N(C)N=O`, the carcinogen call was “active; positive” (Species: MOUSE, Route: INTRAPERITONEAL, Tumor Site: Type of Lesion: LUNG); “active; positive” (Species: MOUSE, Route: ORAL, Tumor Site: Type of Lesion: ESOPHAGUS, FORESTOMACH); “active; positive” (Species: RAT, Route: INTRAVENOUS, Tumor Site: Type of Lesion: LUNG); “active; positive” (Species: RAT, Route: ORAL, Tumor Site: Type of Lesion: FORESTOMACH); “active; positive” (Species: RAT, Strain/Sex: F344/FEMALE, Route: GAVAGE, Dose: 0, 0.35, 1.4 MG/ANIMAL IN CORN OIL 1/WK FOR 20 WK (STUDY DURATION: 114 WK), Dose: 0, 0.35, 1.4 MG/ANIMAL IN CORN OIL 1/WK FOR 20 WK (STUDY DURATION: 114 WK), Tumor Site: Type of Lesion: FORESTOMACH: CARCINOMA, ESOPHAGUS: CARCINOMA, PAPILLOMA); “active; positive” (Species: RAT, Strain/Sex: F344/MALE, Route: ORAL, Dose: 20 PPM IN DRINKING WATER FOR 48 WK (STUDY DURATION: 104 WK), Tumor Site: Type of Lesion: FORESTOMACH: PAPILLOMA, SQUAMOUS CELL CARCINOMA).
Regarding `O=NN(CCO)C(=O)NCCCl`, the carcinogen call was “active; positive” (Species: RAT, Strain/Sex: F344/FEMALE, Route: ORAL, Dose: 0, 42 MG/L IN DRINKING WATER 5 D/WK FOR 30 WK (STUDY DURATION: LIFETIME), Tumor Site: Type of Lesion: LIVER: TUMOR, UTERUS: TUMOR, SKIN: TUMOR, Tumor Site: Type of Lesion: LIVER: TUMOR, UTERUS: TUMOR, SKIN: TUMOR) and “active; positive” (Species: RAT, Strain/Sex: F344/MALE, Route: ORAL, Dose: 0, 42 MG/L IN DRINKING WATER 5 D/WK FOR 30 WK (STUDY DURATION: LIFETIME), Tumor Site: Type of Lesion: LIVER: TUMOR, LUNG: TUMOR, MESOTHELIUM: TUMOR, SKIN: TUMOR, Tumor Site: Type of Lesion: LIVER: TUMOR, LUNG: TUMOR, MESOTHELIUM: TUMOR, SKIN: TUMOR).
Take `N#Cc1nn(-c2c(Cl)cc(C(F)(F)F)cc2Cl)c(N)c1S(=O)C(F)(F)F` (configuration not stated): the carcinogen call by setting is: (Species: Mouse, Strain/Sex: CD-1/Female (32/Group), Route: Oral, Dose: 0, 0.1, 0.5, 10, 30 ppm of 95.4% fipronil in diet for 78 wks, study duration 78 wks, Dose: 0, 0.1, 0.5, 10, 30 ppm of 95.4% fipronil in diet for 78 wks, study duration 78 wks) “inactive; negative”; (Species: Mouse, Strain/Sex: CD-1/Male (32/Group), Route: Oral, Dose: 0, 0.1, 0.5, 10, 30 ppm of 95.4% fipronil in diet for 78 wks, study duration 78 wks, Dose: 0, 0.1, 0.5, 10, 30 ppm of 95.4% fipronil in diet for 78 wks, study duration 78 wks, Tumor Site: Type of Lesion: Liver: malignant hepatocellular tumors at highest dose) “active; positive”; (Species: Rat, Strain/Sex: CD/Female (50/Group), Route: Oral, Dose: 0, 0.5, 1.5, 30, 300 ppm of 95.4% fipronil in diet for 89-91 wks, study duration 104 wks, Dose: 0, 0.5, 1.5, 30, 300 ppm of 95.4% fipronil in diet for 89-91 wks, study duration 104 wks, Tumor Site: Type of Lesion: Thyroid: follicular cell adenoma and carcinoma at highest dose) “active; positive”; (Species: Rat, Strain/Sex: CD/Male (50/Group), Route: Oral, Dose: 0, 0.5, 1.5, 30, 300 ppm of 95.4% fipronil in diet for 89-91 wks, study duration 104 wks, Dose: 0, 0.5, 1.5, 30, 300 ppm of 95.4% fipronil in diet for 89-91 wks, study duration 104 wks, Tumor Site: Type of Lesion: Thyroid: follicular cell adenoma and carcinoma at highest dose) “active; positive”.
Regarding `CCN(CC)C(=O)c1cccc(C)c1`, the carcinogen call is, setting by setting: (Species: DOG, Strain/Sex: BEAGLE/FEMALE, Route: ORAL, Dose: 0, 30, 100, 400 MG/KG/D IN DIET FOR 52 WK (STUDY DURATION: 52 WK), Dose: 0, 30, 100, 400 MG/KG/D IN DIET FOR 52 WK (STUDY DURATION: 52 WK)) “inactive; negative”; (Species: DOG, Strain/Sex: BEAGLE/MALE, Route: ORAL, Dose: 0, 30, 100, 400 MG/KG/D IN DIET FOR 52 WK (STUDY DURATION: 52 WK), Dose: 0, 30, 100, 400 MG/KG/D IN DIET FOR 52 WK (STUDY DURATION: 52 WK)) “inactive; negative”; (Species: MOUSE, Strain/Sex: CD-1/MALE, Route: ORAL, Dose: 0, 250, 500, 1000 MG/KG/D IN DIET FOR 78 WK (STUDY DURATION: 78 WK), Dose: 0, 250, 500, 1000 MG/KG/D IN DIET FOR 78 WK (STUDY DURATION: 78 WK)) “inactive; negative”; (Species: Mouse, Strain/Sex: CD-1/Female (60/Group), Route: Oral, Dose: 0, 250, 500, 1000 mg/kg in diet for 78 wk, Dose: 0, 250, 500, 1000 mg/kg in diet for 78 wk) “inactive; negative”; (Species: Mouse, Strain/Sex: CD-1/Male (60/Group), Route: Oral, Dose: 0, 250, 500, 1000 mg/kg in diet for 78 wk, Dose: 0, 250, 500, 1000 mg/kg in diet for 78 wk) “inactive; negative”; (Species: RAT, Strain/Sex: CD-1/FEMALE, Route: ORAL, Dose: 0, 250, 500, 1000 MG/KG/D IN DIET FOR 78 WK (STUDY DURATION: 78 WK), Dose: 0, 250, 500, 1000 MG/KG/D IN DIET FOR 78 WK (STUDY DURATION: 78 WK)) “inactive; negative”. In addition, the carcinogen call (Species: RAT, Strain/Sex: CD/FEMALE, Route: ORAL, Dose: 0, 30, 100, 400 MG/KG/D IN DIET FOR 104 WK (STUDY DURATION: 104 WK), Dose: 0, 30, 100, 400 MG/KG/D IN DIET FOR 104 WK (STUDY DURATION: 104 WK)) was “inactive; negative”; the carcinogen call (Species: RAT, Strain/Sex: CD/MALE, Route: ORAL, Dose: 0, 10, 30, 100 MG/KG/D IN DIET FOR 104 WK (STUDY DURATION: 104 WK), Dose: 0, 10, 30, 100 MG/KG/D IN DIET FOR 104 WK (STUDY DURATION: 104 WK)) was “inactive; negative”; the carcinogen call (Species: Rat, Strain/Sex: Charles River CD/Female (60/Group), Route: Oral, Dose: 0, 10, 30, 100 mg/kg in diet for 2 yr, Dose: 0, 10, 30, 100 mg/kg in diet for 2 yr) was “inactive; negative”; the carcinogen call (Species: Rat, Strain/Sex: Charles River CD/Male (60/Group), Route: Oral, Dose: 0, 10, 30, 100 mg/kg in diet for 2 yr, Dose: 0, 10, 30, 100 mg/kg in diet for 2 yr) is “inactive; negative”.
For the molecule `COC(=O)[C@H]1[C@H]2C[C@@H]3c4[nH]c5cc(OC)ccc5c4CCN3C[C@H]2C[C@@H](OC(=O)c2cc(OC)c(OC)c(OC)c2)[C@@H]1OC`, the carcinogen call runs as follows: (Species: MOUSE, Strain/Sex: B6C3F1/FEMALE, Route: ORAL, Dose: 0, 5, 10 PPM IN DIET FOR 103 WK (STUDY DURATION: 105 WK), Dose: 0, 5, 10 PPM IN DIET FOR 103 WK (STUDY DURATION: 105 WK), Tumor Site: Type of Lesion: MAMMARY GLAND: MALIGNANT TUMOR) “active; positive”; (Species: MOUSE, Strain/Sex: B6C3F1/MALE, Route: ORAL, Dose: 0, 5, 10 PPM IN DIET FOR 103 WK (STUDY DURATION: 105 WK), Dose: 0, 5, 10 PPM IN DIET FOR 103 WK (STUDY DURATION: 105 WK), Tumor Site: Type of Lesion: SEMINAL VESICLES: CARCINOMA) “active; positive”; (Species: RAT, Strain/Sex: F344/FEMALE, Route: ORAL, Dose: 0, 5, 10 PPM IN DIET FOR 103 WK (STUDY DURATION: 105 WK), Dose: 0, 5, 10 PPM IN DIET FOR 103 WK (STUDY DURATION: 105 WK)) “inactive; negative”; (Species: RAT, Strain/Sex: F344/MALE, Route: ORAL, Dose: 0, 5, 10 PPM IN DIET FOR 103 WK (STUDY DURATION: 105 WK), Dose: 0, 5, 10 PPM IN DIET FOR 103 WK (STUDY DURATION: 105 WK), Tumor Site: Type of Lesion: ADRENAL GLAND: MALIGNANT PHEOCHROMOCYTOMA OR PHEOCHROMOCYTOMA) “active; positive”.
As to `CCC(=O)O[C@H]1CC[C@H]2[C@@H]3CCC4=CC(=O)CC[C@]4(C)[C@H]3CC[C@]12C`, the carcinogen call was “active; positive” (Species: MOUSE, Route: SUBCUTANEOUS IMPLANT, Tumor Site: Type of Lesion: CERVIX, UTERUS) and “active; positive” (Species: RAT, Route: SUBCUTANEOUS IMPLANT, Tumor Site: Type of Lesion: PROSTATE GLAND).
On to `O=S1(=O)CC=CC1`, for which the carcinogen call by setting is: (Species: MOUSE, Strain/Sex: B6C3F1/FEMALE, Route: GAVAGE, Dose: 0, 384, 768 MG/KG, Dose: 0, 384, 768 MG/KG) “inactive; negative”; (Species: MOUSE, Strain/Sex: B6C3F1/MALE, Route: GAVAGE, Dose: 0, 311, 622 MG/KG, Dose: 0, 311, 622 MG/KG) “inactive; negative”; (Species: RAT, Strain/Sex: OSBORNE-MENDEL/FEMALE, Route: GAVAGE, Dose: 0, 120, 240 MG/KG, Dose: 0, 120, 240 MG/KG) “inactive; negative”; (Species: RAT, Strain/Sex: OSBORNE-MENDEL/MALE, Route: GAVAGE, Dose: 0, 197, 372 MG/KG, Dose: 0, 197, 372 MG/KG) “inactive; negative”.
